From the NIST ThermoML archive (doi:10.1016/j.fluid.2014.01.038)
± gives the expanded uncertainty stated by the source.

Test: mn = molality of the nth substance listed, in mol/kg
Settings: 288.15 K, 101 kPa, Liquid, Pycnometric method

Row | Structure (SMILES) | mass density (m1 = 0.03301) | mass density (m1 = 0.04936) | mass density (m1 = 0.05894) | mass density (m1 = 0.06889) | mass density (m1 = 0.07838) | mass density (m1 = 0.08821) | mass density (m1 = 0.09745) | mass density (m1 = 0.04051) | mass density (m1 = 0.08097) | mass density (m1 = 0.1203) | mass density (m1 = 0.1403) | mass density (m1 = 0.1594) | mass density (m1 = 0.1799) | mass density (m1 = 0.1995)
1 | CC(C)C[C@H](NC(=O)CN)C(=O)O [glycyl-L-leucine] + O | 1000.8 ± 20 kg/m3 | 1001.65 ± 20 kg/m3 | 1002.14 ± 20 kg/m3 | 1002.67 ± 20 kg/m3 | 1003.17 ± 20 kg/m3 | 1003.69 ± 20 kg/m3 | 1004.12 ± 20 kg/m3 |  |  |  |  |  |  | 
2 | CC(C)[C@H](NC(=O)CN)C(=O)O [glycyl-L-valine] + O |  |  |  |  |  |  |  | 1001.29 ± 20 kg/m3 | 1003.45 ± 20 kg/m3 | 1005.55 ± 20 kg/m3 | 1006.63 ± 20 kg/m3 | 1007.68 ± 20 kg/m3 | 1008.79 ± 20 kg/m3 | 1009.84 ± 20 kg/m3
